{"source": "paper PMC7255801", "about": "“Disease-associated mutations in the human TRPM3 render the channel overactive via two distinct mechanisms” (eLife, 2020)", "biological_target": "T1, hTRPM3_1325 V990M (Homo sapiens, UniProt Q9HCF6, V1015M)", "T1 construct": "expressed in transfected cells; host or cells: Xenopus laevis oocytes (cRNA injection)", "T1 sequence (Q9HCF6 1-1325 isoform Q9HCF6-10 V990M)": "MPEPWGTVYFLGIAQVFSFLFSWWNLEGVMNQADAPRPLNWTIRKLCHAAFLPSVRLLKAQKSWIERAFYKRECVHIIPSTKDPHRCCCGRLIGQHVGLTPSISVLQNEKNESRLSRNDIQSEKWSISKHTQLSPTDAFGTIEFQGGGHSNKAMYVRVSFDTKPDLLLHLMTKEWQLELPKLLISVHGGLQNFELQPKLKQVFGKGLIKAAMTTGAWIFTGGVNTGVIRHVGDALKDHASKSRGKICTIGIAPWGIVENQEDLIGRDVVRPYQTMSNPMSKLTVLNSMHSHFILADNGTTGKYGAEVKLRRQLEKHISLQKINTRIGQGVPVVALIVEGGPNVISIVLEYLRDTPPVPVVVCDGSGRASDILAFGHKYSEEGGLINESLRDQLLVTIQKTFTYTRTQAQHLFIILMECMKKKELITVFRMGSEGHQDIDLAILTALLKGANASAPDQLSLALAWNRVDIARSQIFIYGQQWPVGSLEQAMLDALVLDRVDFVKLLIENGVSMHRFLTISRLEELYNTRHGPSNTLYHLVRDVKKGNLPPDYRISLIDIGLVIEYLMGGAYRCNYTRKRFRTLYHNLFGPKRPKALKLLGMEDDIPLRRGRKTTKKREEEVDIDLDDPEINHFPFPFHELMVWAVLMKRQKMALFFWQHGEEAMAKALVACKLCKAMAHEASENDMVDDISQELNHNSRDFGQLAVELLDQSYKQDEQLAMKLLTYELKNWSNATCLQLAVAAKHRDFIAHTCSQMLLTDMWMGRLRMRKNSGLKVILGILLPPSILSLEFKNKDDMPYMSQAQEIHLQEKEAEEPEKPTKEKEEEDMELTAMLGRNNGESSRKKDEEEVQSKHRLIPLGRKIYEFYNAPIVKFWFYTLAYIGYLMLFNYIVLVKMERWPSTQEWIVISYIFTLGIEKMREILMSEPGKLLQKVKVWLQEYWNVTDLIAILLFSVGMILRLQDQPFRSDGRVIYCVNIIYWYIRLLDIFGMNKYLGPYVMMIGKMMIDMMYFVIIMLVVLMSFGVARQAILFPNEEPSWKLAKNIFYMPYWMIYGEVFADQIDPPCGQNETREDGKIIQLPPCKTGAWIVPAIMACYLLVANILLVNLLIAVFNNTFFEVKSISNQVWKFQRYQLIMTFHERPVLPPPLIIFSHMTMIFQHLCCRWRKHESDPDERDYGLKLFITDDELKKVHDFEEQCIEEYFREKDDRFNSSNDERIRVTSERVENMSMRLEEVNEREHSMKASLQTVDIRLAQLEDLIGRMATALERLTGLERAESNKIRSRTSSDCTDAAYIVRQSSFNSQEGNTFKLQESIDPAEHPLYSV", "assay": "Two electrode voltage clamp in Xenopus oocytes, V990M mutant", "type": "cell-based", "conditions": "V990M compared with P1090Q, 50 μM, 100 and −100 mV, room temperature (20–22°C)", "protocol": "Xenopus laevis oocytes were prepared as described earlier ([Badheka et al., 2015]). All animal procedures were approved by the Institutional Animal Care and Use Committee at Rutgers New Jersey Medical School. In brief, frogs were anesthetized in 0.25% ethyl 3-aminobenzoate methanesulfonate solution (MS222; Sigma-Aldrich); bags of ovaries were removed surgically from the anesthetized frogs. Individual oocytes were obtained by overnight digestion at 16°C in 0.2–0.3 mg/ml type 1A collagenase (Sigma-Aldrich), dissolved in a solution containing 82.5 mM NaCl, 2 mM KCl, 1 mM MgCl2, and […] HEPES, pH 7.4 (OR2 solution). The next day the collagenase containing solution was discarded and the oocytes were washed multiple times with OR2 solution. […]\nTwo electrode voltage clamp experiments were performed as described ([Badheka et al., 2015]). In brief, oocytes were placed in extracellular solution (97 mM NaCl, 2 mM KCl, 1 mM MgCl2, and […] HEPES, pH 7.4), and currents were recorded with thin-wall inner filament– containing glass pipettes (World Precision Instruments) filled with 3 M KCl in 1% agarose. Currents were measured with a ramp protocol from −100 to 100 mV once every 0.5 s with a GeneClamp 500B amplifier and analyzed with the pClamp 9.0 software (Molecular Devices). […]"}
{"smiles": "CCC1(c2ccccc2)C(=O)NCNC1=O", "note": "[primidone]", "values": [{"measurement": "Inhibition of basal current", "result": "significantly larger inhibition"}]}
